The source of these data is patent publication US5679673A (priority 1994, dated 1997).

The subject of one experiment is NMDA receptor. Conditions: C. Carter et al, J. Pharm Exp. Ther., 1988; cited from earlier work.
The subject of experiment [1] is sigma receptor. As to conditions: de Costa et al, J. Med. Chem. 1989 and further structure activity studies; cited from earlier work.
Experiment [2] concerns the target T1, sigma receptor (Cavia porcellus, UniProt Q60492).
T1 construct: crude synaptosomal (P2) membrane fraction of guinea pig brain; tissue Pel-Freeze (frozen guinea pig brains); host or cells: guinea pig brain minus cerebella, crude P2 membranes
In words: Radioreceptor assay: displacement of [3H](+)-pentazocine from guinea pig brain membranes. The experiment is classed as binding. As to conditions: [3H](+)-pentazocine 3 nM, guinea pig brain crude P2 membranes, pH 8.0, 120 min, 25° C.; average of 2-4 experiments; from IC50 by Cheng-Prusoff; read-out: Ki ([3H] (+) -Pent). Background: In a radioligand displacement assay an active substance lowers the binding of a labelled ligand.

T1 sequence (Q60492 whole entry): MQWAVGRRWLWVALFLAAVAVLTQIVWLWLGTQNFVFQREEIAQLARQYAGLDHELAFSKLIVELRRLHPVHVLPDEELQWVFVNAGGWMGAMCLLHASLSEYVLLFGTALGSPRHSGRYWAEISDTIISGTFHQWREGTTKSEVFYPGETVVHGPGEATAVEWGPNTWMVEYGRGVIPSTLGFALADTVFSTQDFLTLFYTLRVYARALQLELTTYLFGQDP

As to “1-(4-chlorophenyl)-2-[1-(4-fluorophenyl)-piperidinyl]ethanol”, the NMDA receptor antagonism result in the experiment with NMDA receptor is recorded as “non-competitive NMDA receptor antagonists”.

In the case of `CN(CCc1ccc(Cl)c(Cl)c1)[C@@H]1CCCC[C@@H]1N1CCCC1` (single isomer, unassigned) [(+)-cis-N-[3,4-dichlorophenylethyl]-N-methyl-2-(1-pyrrolidinyl)-cyclohexylamine], in the experiment with sigma receptor [1], the sigma receptor ligand entry was “extremely potent and selective ligands for the sigma receptor”.

As to `CN(CCc1ccc(Cl)c(Cl)c1)[C@@H]1CCCC[C@@H]1N1CCCC1` (single isomer, unassigned) [(-)-cis-N-[3,4-dichlorophenylethyl]-N-methyl-2-(1-pyrrolidinyl)-cyclohexylamine], in the experiment on sigma receptor [1], the sigma receptor ligand result is “extremely potent and selective ligands for the sigma receptor”.

As a reminder, the Ki is the dissociation constant of the complex between target and ligand, obtained from inhibition or displacement. Consider `Clc1ccc(CCN2CCN3CCC2CC3)cc1Cl` [Compound of Ex. 5, 4-[2-(3,4-Dichlorophenyl)ethyl]-1,4-diazabicyclo[2.2.3]nonane], for which, at sigma receptor [2], the Ki is 125 nM.

Regarding `CC(C(O)c1ccc(O)cc1)N1CCC(Cc2ccccc2)CC1` (centres unmarked) [ifenprodil], in the experiment on NMDA receptor, the NMDA receptor antagonism entry is recorded as “non-competitive NMDA receptor antagonists”.
